Patent EP2745708A1, “Antidepressant effect of ß-hydroxy-ß-methylbutyrate” (Abbott Laboratories, Inc., priority 2012, dated 2014)

Test system: rats
Assay: Forced swimming test (FST) in rats
Assay type: in vivo
Details: forced swim test, oral 250 mg/kg or 500 mg/kg body weight after pre-swim and four hours and one hour prior to 5 minute test swim, two independent experiments
Method: The antidepressant effect of HMB was evaluated using the forced swimming test (FST) using the procedure described by Porsolt et al. (Eur. J. Pharmacol. 47(4). 379-91 (1978)). To begin the experiment, rats were individually placed inside vertical cylinders (height 40 cm; diameter 21.5 cm) containing 30 cm of water at 35 °C for 15 minutes (i.e., "pre-swim). Following this pre-swim period, the rats were removed and allowed to dry in a heated enclosure before returning to their cages. The rats were then orally administered a dose of either 250 mg/kg body weight or 500 mg/kg body weight HMB.
Twenty-four hours later, rats were submitted to the test swim, in which the rats were again placed in the cylinder for 5 minutes. Test swims were videotaped and subsequently assessed for latency to immobility, which is the point at which no movements were observed and the rat was in the "deadman" position (i.e., head up, tail down, front legs slightly hunched, and rear legs pointed downwards). Rats were orally administered their respective doses of either 250 mg/kg body weight or 500 mg/kg body weight of HMB four hours and one hours prior to the swim test.

CC(C)(O)CC(=O)O [HMB, 3-hydroxy-3-methylbutanoic acid]
latency to immobility: significantly increased
